Data as given in patent US20230250096A1, “SUBSTITUTED PHENYL-1H-PYRROLO[2,3-c] PYRIDINE DERIVATIVES” (Janssen Pharmaceutica NV, priority 2021, published 2023).
pIC50: −log10 of the molar value.

What was measured:
[1] = target: T1, menin/MLL (terbium chelate-labeled menin, FITC-MBM1 peptide) (Homo sapiens, UniProt O00255, T541A); assay: Menin/MLL homogenous time-resolved fluorescence (HTRF) assay; format: binding; conditions: 30 min incubation
T1 construct: Menin (a.a 1-610-6xhis tag, 2.3 mg/mL in 20 mM Hepes)
T1 sequence (O00255 with tags, fused parts or gaps T541A): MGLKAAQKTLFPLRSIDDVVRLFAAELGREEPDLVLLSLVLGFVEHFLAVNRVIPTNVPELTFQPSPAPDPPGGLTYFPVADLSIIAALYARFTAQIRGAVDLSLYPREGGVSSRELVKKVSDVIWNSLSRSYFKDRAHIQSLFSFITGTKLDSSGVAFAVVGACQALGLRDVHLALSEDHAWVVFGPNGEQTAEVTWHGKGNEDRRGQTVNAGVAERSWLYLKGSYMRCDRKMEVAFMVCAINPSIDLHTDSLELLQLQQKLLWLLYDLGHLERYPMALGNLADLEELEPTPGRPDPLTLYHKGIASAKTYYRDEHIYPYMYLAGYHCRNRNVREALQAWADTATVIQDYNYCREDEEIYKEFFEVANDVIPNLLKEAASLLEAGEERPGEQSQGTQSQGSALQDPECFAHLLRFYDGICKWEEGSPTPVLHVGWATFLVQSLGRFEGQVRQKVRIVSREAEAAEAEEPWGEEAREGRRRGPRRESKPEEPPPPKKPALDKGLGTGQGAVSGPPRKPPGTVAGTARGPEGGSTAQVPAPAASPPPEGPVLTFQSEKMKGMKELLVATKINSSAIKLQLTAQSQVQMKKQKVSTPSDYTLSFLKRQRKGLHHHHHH
Protocol: 1) Menin/MLL Homogenous Time-Resolved Fluorescence (HTRF) Assay
To an untreated, white 384-well microtiter plate was added 40 nL 200× test compound in DMSO and 4 μL 2× terbium chelate-labeled menin (vide infra for preparation) in assay buffer (40 mM Tris HCl, pH 7.5, 50 mM NaCl. 1 mM DTT (dithiothreitol) and 0.05% Pluronic F-127). After incubation of test compound and terbium chelate-labeled menin for 30 min at ambient temperature, 4 μL 2×FITC-MBM1 peptide (FITC-β-alanine-[…]-NH2) (“FITC” means fluorescein isothiocyanate) in assay buffer was added, the microtiter plate centrifuged at 1000 rpm for 1 min and the assay mixtures incubated for 15 min at ambient temperature. The relative amount of menin FITC-MBM1 complex present in an assay mixture is determined by measuring the homogenous time-resolved fluorescence (HTRF) of the terbium/FITC donor/acceptor fluorphore pair using an EnVision microplate reader (ex. 337 nm/terbium em. 490 nm/FITC em. 520 nm) at ambient temperature. The degree of fluorescence resonance energy transfer (the HTRF value) is expressed as the ratio of the fluorescence emission intensities of the FITC and terbium fluorophores (F^em520 nm/F^em490 nm). The final concentrations of reagents in the binding assay are […] terbium chelate-labeled menin, 75 nM FITC-MBM1 peptide and 0.5% DMSO in assay buffer. Dose-response titrations of test compounds are conducted using an 11 point, four-fold serial dilution scheme, starting typically at 10 μM.
Compound potencies were determined by first calculating % inhibition at each compound concentration according to equation 1:
% inhibition=((HC−LC)−(HTRF^compound−LC))/(HC−LC))*100 (Eqn 1)
Where LC and HC are the HTRF values of the assay in the presence or absence of a saturating concentration of a compound that competes with FITC-MBM1 for binding to menin, and HTRF^compound is the measured HTRF value in the presence of the test compound. HC and LC HTRF values represent an average of at least 10 replicates per plate.
% inhibition=Bottom+(Top−Bottom)/(1+10^((log/C50−log[cmpd])*h)) (Eqn 2)
Where Bottom and Top are the lower and upper asymptotes of the dose-response curve, respectively, IC50 is the concentration of compound that yields 50% inhibition of signal and h is the Hill coefficient.
Preparation of Terbium cryptate labeling of Menin: Menin (a.a 1-610-6xhis tag, 2.3 mg/mL in 20 mM Hepes (2-[4-(2-Hydroxyethyl)-1-piperazinyl]ethane sulfonic acid), 80 mM NaCl, 5 mM DTT (Dithiothreitol), pH 7.5) was labeled with terbium cryptate as follows. 200 μg of Menin was buffer exchanged into 1×Hepes buffer. 6.67 μM Menin was incubated with 8-fold molar excess NHS (N-hydroxysuccinimide)-terbium cryptate for 40 minutes at room temperature. Half of the labeled protein was purified away from free label by running the reaction over a NAP5 column with elution buffer (0.1M Hepes, pH 7+0.1% BSA (bovine serum albumin)). The other half was eluted with 0.1 M phosphate buffered saline (PBS), pH7. 400 μl of eluent was collected for each, aliquoted and frozen at −80° C. The final concentration of terbium-labeled Menin protein was 115 μg/mL in Hepes buffer and 85 μg/mL in PBS buffer, respectively.

MEIS1 mRNA expression = MEIS1 mRNA expression assay (Quantigene Singleplex) in MOLM14 cells; format: cell-based, human; conditions: Homo sapiens, MOLM-14, 48 h, 48 hours incubation
Protocol: 2b) MEIS1 mRNA Expression Assay
MEIS1 mRNA expression upon treatment of compound was examined by Quantigene Singleplex assay (Thermo Fisher Scientific). This technology allows for direct quantification of mRNA targets using probes hybridizing to defined target sequences of interest and the signal is detected using a Multimode plate reader Envision (PerkinElmer). The MOLM14 cell line was used for this experiment. Cells were plated in 96-well plates at 3,750 cells/well in the presence of increasing concentrations of compounds. After incubation of 48 hours with compounds, cells were lysed in lysis buffer and incubated for 45 minutes at 55° C. Cell lysates were mixed with human MEIS specific capture probe or human RPL28 (Ribosomal Protein L28) specific probe as a normalization control, as well as blocking probes. Cell lysates were then transferred to the custom assay hybridization plate (Thermo Fisher Scientific) and incubated for 18 to 22 hours at 55° C. Subsequently, plates were washed to remove unbound materials followed by sequential addition of preamplifiers, amplifiers, and label probe. Signals (═gene counts) were measured with a Multimode plate reader Envision. IC50S were calculated by dose-response modelling using appropriate software. For all non-housekeeper genes response equal counts corrected for background and relative expression. For each sample, each test gene signal (background subtracted) was divided by the normalization gene signal (RPL28: background subtracted). Fold changes were calculated by dividing the normalized values for the treated samples by the normalized values for the DMSO treated sample. Fold changes of each target gene were used for the calculation of IC50S.

pIC50 [1]	pIC50 (MEIS1 mRNA expression)	Structure (SMILES)
10.68	7.77	Cc1cncc2c1c(C[C@@H]1CCN(C(CCCN3CCC(S(C)(=O)=O)CC3)C(C)C)C1)cn2-c1ccc(F)cc1C(=O)N(C)C(C)C (mixture of isomers) [Compound 10]
10.47	8.22	Cc1cncc2c1c(C[C@H]1CCN(C(CCCN3CCC(S(C)(=O)=O)CC3)C(C)C)C1)cn2-c1ccc(F)cc1C(=O)N(C)C(C)C (mixture of isomers) [Compound 11]
10.74	8.30	CC(=O)N1C[C@@H]2CN(CCCC(C(C)C)N3CC[C@@H](Cc4cn(-c5ccc(F)cc5C(=O)N(C)C(C)C)c5cncc(C)c45)C3)C[C@H]2C1 (mixture of isomers) [Compound 12]
9.91	8.22	CC(=O)N1C[C@@H]2CN(CCCC(C(C)C)N3CC[C@H](Cc4cn(-c5ccc(F)cc5C(=O)N(C)C(C)C)c5cncc(C)c45)C3)C[C@H]2C1 (mixture of isomers) [Compound 13]
10.27	> 8.44	COCCNCCCC(C(C)C)N1CC[C@@H](Cc2cn(-c3ccc(F)cc3C(=O)N(C)C(C)C)c3cncc(C)c23)C1 (mixture of isomers) [Compound 14]
10.40	> 9.10	COCCNCCCC(C(C)C)N1CC[C@H](Cc2cn(-c3ccc(F)cc3C(=O)N(C)C(C)C)c3cncc(C)c23)C1 (mixture of isomers) [Compound 15]
10.29	7.15	CCC(CCCN1C[C@H]2CN(C(C)=O)C[C@@H]2C1)N1CC[C@@H](Cc2cn(-c3ccc(F)cc3C(=O)N(C)C(C)C)c3cncc(C)c23)C1 (mixture of isomers) [Compound 16]
10.51	7.32	CCC(CCCN1C[C@H]2CN(C(C)=O)C[C@@H]2C1)N1CC[C@H](Cc2cn(-c3ccc(F)cc3C(=O)N(C)C(C)C)c3cncc(C)c23)C1 (mixture of isomers) [Compound 17]
~9.72	> 8.77	CC(=O)N1C[C@@H]2CN([C@H]3C[C@@H](C(C(C)C)N4CC[C@@H](Cc5cn(-c6ccc(F)cc6C(=O)N(C)C(C)C)c6cncc(C)c56)C4)C3)C[C@H]2C1 (mixture of isomers) [Compound 20]
10.62	~7.96	CCC([C@H]1C[C@@H](N2C[C@H]3CN(C(C)=O)C[C@@H]3C2)C1)N1CC[C@@H](Cc2cn(-c3ccc(F)cc3C(=O)N(C)C(C)C)c3cncc(C)c23)C1 (mixture of isomers) [Compound 22]
10.15	8.15	CCC([C@H]1C[C@@H](N2C[C@H]3CN(C(C)=O)C[C@@H]3C2)C1)N1CC[C@H](Cc2cn(-c3ccc(F)cc3C(=O)N(C)C(C)C)c3cncc(C)c23)C1 (mixture of isomers) [Compound 23]
10.06	7.04	CCC([C@H]1C[C@@H](N2CCN(C(C)=O)CC2)C1)N1CC[C@H](Cc2cn(-c3ccc(F)cc3C(=O)N(C)C(C)C)c3cncc(C)c23)C1 (mixture of isomers) [Compound 25]
10.26	6.97	CC(=O)N1C[C@@H]2CN([C@H]3C[C@@H](C(C)N4CC[C@@H](Cc5cn(-c6ccc(F)cc6C(=O)N(C)C(C)C)c6cncc(C)c56)C4)C3)C[C@H]2C1 (mixture of isomers) [Compound 28]
	< 6.00	CC(=O)N1CCC(CN2CC[C@@H](Cc3cn(-c4ccc(F)cc4S4(=O)=NCCC4)c4cncc(C)c34)C2)CC1 (mixture of isomers) [Compound 214]
9.88		CC(=O)N1CCC(N2CC(Cc3cn(-c4ccc(F)cc4C(=O)N(C)C(C)C)c4cncc(C)c34)C2)C[C@H]1C (single isomer, unassigned) [Compound 292a]
8.89		Cc1cncc2c1c(CC1CN([C@@H]3CCN4C(=O)CCC4C3)C1)cn2-c1ccc(F)cc1C(=O)N(C)C(C)C (single isomer, unassigned) [Compound 309a]
9.52		CNC(=O)c1cncc(N2CCC(N3CC(Cc4cn(-c5ccc(OC)cc5C(=O)N(C)C(C)C)c5cncc(C)c45)C3)CC2)n1 [Compound 76]
10.38		CC(=O)N1CCC(N2CC[C@H](Cc3cn(-c4ccc(F)cc4C(=O)N(C)C(C)C)c4cncc(C)c34)C2)CC1 [Compound 156]
10.11		CC(=O)N1CC2CC(N3CC(Cc4cn(-c5ccc(F)cc5C(=O)N(C)C(C)C)c5cncc(C)c45)C3)CC2C1 (stereo not shown) [Compound 294b]
9.83		Cc1cncc2c1c(C[C@@H]1CCN(CC3CCOCC3)C1)cn2-c1ccc(F)cc1C(=O)N1CCC[C@@H]1CO [Compound 361]
7.98		Cc1cncc2c1c(C[C@H]1CN[C@H](C)C1)cn2-c1ccc(F)cc1C(=O)N(C)C(C)C [Compound 503]
8.51		Cc1cncc2c1c(C[C@H]1CN[C@@H](C)C1)cn2-c1ccc(F)cc1C(=O)N(C)C(C)C [Compound 505]
8.18		Cc1cncc2c1c(CC1CCNC1C)cn2-c1ccc(F)cc1C(=O)N(C)C(C)C (stereo not shown) [Compound 507]
8.43		Cc1cncc2c1c(CC1CCNC1C)cn2-c1ccc(F)cc1C(=O)N(C)C(C)C (stereo not shown) [Compound 508]
8.34		Cc1cncc2c1c(CC1CCNC1C)cn2-c1ccc(F)cc1C(=O)N(C)C(C)C (stereo not shown) [Compound 509]
8.53		Cc1cncc2c1c(CC1CCNC1C)cn2-c1ccc(F)cc1C(=O)N(C)C(C)C (stereo not shown) [Compound 510]
7.98		Cc1cncc2c1c(C[C@@H]1CN[C@@H](C)C1)cn2-c1ccc(F)cc1C(=O)N(C)C(C)C [Compound 522]
9.29		COC(=O)c1cc(F)ccc1-n1cc(C[C@@H]2CCN(CC3CCN(C(C)=O)CC3)C2)c2c(C)cncc21 [Compound 528]
9.09		COC(=O)c1cc(F)ccc1-n1cc(C[C@@H]2CCN(CC3CCNC(=O)CC3)C2)c2c(C)cncc21 (stereo partly shown) [Compound 533]
9.25		COC(=O)c1cc(F)ccc1-n1cc(C[C@@H]2CCN(CC3CCOCC3)C2)c2c(C)cncc21 [Compound 534]
